Read-outs that look alike come from different tables or passages of the source.
Assays:
[1] = cited from earlier work
[2] = Pharmacokinetic studies after oral administration of ASA (cited Dressman et al.); conditions: extrapolated from linear pharmacokinetics, dose not stated
[3] = oral solution of 650 mg, four male subjects; cited from earlier work
[4] = cited from earlier work; remark: listed apart in the source
[5] = cited from earlier work; remark: listed apart in the source
[6] = metabolite after oral administration of ASA
[7] = after oral administration of ASA

## O=C(O)c1ccccc1O [salicylate, salicylic acid]
[1]; [6]
  elimination half-life: 2 to 3 h
  period over which plasma levels increase following administration of ASA: about 45 minutes
[2]
  expected peak circulating plasma level: ~10 µg/mL

## CC(=O)Oc1ccccc1C(=O)O [aspirin, acetylsalicylic acid]
[3]
  share of the dose that reached the peripheral circulation intact (AUC oral vs intravenous): 68%
[1]; [7]
  elimination half-life: 0.25 to 0.333 h
  time to peak plasma levels: about 20 minutes
[1]; dosage range from 30-400 mg
  pharmacokinetic behavior over dosage range: linear
[4]; Dutch TIA Study, any dose above 30 mg daily, oral
  vascular events prevented: 13%
[4]; oral aspirin, studies used dosages of 325 mg
  increase of major gastrointestinal and extracranial bleeds: over 50%
[5]; oral administration
  loss or inactivation of the oral dosage due to the first pass effect in the gut and liver: approximately ⅔
[5]; taken orally, first pass effect
  fraction of the oral dose that is bioavailable: about one to two-thirds
